Data as given in patent publication US8163793B2, “Proline derivatives” (Hoffman-La Roche Inc., priority 2009, dated 2012).
Read-outs that look alike come from different tables or passages of the source.

How the values were obtained:
[1] = molecular target: Cathepsin S (UniProt P25774); test: Cathepsin enzyme inhibition assay (fluorogenic peptide substrate Z-Val-Val-Arg-AMC), Cathepsin S; assay type: biochemical, human and mouse
How it was run: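 Compounds were combined with 1 nM human or mouse enzyme, and substrate then started the reaction. The buffer was potassium phosphate (100 mM, pH 6.5) containing EDTA-Na 5 mM, Triton X-100 0.001% and […] 5 mM.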

[2] = molecular target: Cat L (UniProt P07711); test: Cathepsin enzyme inhibition assay (fluorogenic peptide substrate Z-Val-Val-Arg-AMC), Cathepsin L; assay type: biochemical, human and mouse
How it was run: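 Fluorogenic cleavage of Z-Val-Val-Arg-AMC (20 μM) by 1 nM Cat L was monitored at ex 360/em 465 nm for 20 min, the linear phase. The buffer was 100 mM potassium phosphate pH 6.5 with 5 mM EDTA and DTT. IC50 values were derived by standard methods, in μM.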

[3] = enzyme 1 nM, substrate 20 μM, pH 6.5; read-out: CatS IC50
[4] = enzyme 1 nM, substrate 20 μM, pH 6.5; read-out: CatL IC50

Structure (SMILES)	IC50 ([1]; read-out: CatS IC50; enzyme 1 nM, substrate 20 μM, pH 6.5)	IC50 ([2]; read-out: CatL IC50; enzyme 1 nM, substrate 20 μM, pH 6.5)	IC50 [1, 3]	IC50 [2, 4]
Cc1cc(-c2ccc(S(=O)(=O)[C@@H]3C[C@@H](C(=O)NC4(C#N)CC4)N(C(=O)C4(C(F)(F)F)CC4)C3)c(C(F)(F)F)c2)ccn1 [Example 248, (2S,4R)-4-[4-(2-Methyl-pyridin-4-yl)-2-trifluoromethyl-benzenesulfonyl]-1-(1-trifluoromethyl-cyclopropanecarbonyl)-pyrrolidine-2-carboxylic acid (1-cyano-cyclopropyl)-amide]	0.55 nM	54700 nM		
Cn1cc(-c2ccc(S(=O)(=O)[C@@H]3C[C@@H](C(=O)NC4(C#N)CC4)N(C(=O)C4(C)CC4)C3)c(C(F)(F)F)c2)cn1 [Example 249, (2S,4R)-1-(1-Methyl-cyclopropanecarbonyl)-4-[4-(1-methyl-1H-pyrazol-4-yl)-2-trifluoromethyl-benzenesulfonyl]-pyrrolidine-2-carboxylic acid (1-cyano-cyclopropyl)-amide]			0.255 nM	25800 nM
N#CC1(NC(=O)[C@@H]2C[C@@H](S(=O)(=O)c3ccc(OCC(F)(F)F)cc3Cl)CN2C(=O)C(F)(F)c2ccccc2)CC1 [Example 251, (2S,4R)-4-[2-Chloro-4-(2,2,2-trifluoro-ethoxy)-benzenesulfonyl]-1-(2,2-difluoro-2-phenyl-acetyl)-pyrrolidine-2-carboxylic acid (1-cyano-cyclopropyl)-amide]			0.29 nM	1250 nM
N#CC1(NC(=O)[C@@H]2C[C@@H](S(=O)(=O)c3ccc(OCC(F)(F)F)cc3Cl)CN2C(=O)Oc2ccc(Cl)cc2)CC1 [Example 252, (2S,4R)-4-[2-Chloro-4-(2,2,2-trifluoro-ethoxy)-benzenesulfonyl]-2-(1-cyano-cyclopropylcarbamoyl)-pyrrolidine-1-carboxylic acid 4-chloro-phenyl ester]			1.75 nM	≥ 25000 nM
Cc1cc(N2C[C@H](S(=O)(=O)c3ccccc3Cl)C[C@H]2C(=O)NC2(C#N)CC2)n(-c2ccc(C(F)(F)F)cc2)n1 [Example 253, (2S,4R)-4-(2-Chloro-benzenesulfonyl)-1-[5-methyl-2-(4-trifluoromethyl-phenyl)-2H-pyrazol-3-yl]-pyrrolidine-2-carboxylic acid (1-cyano-cyclopropyl)-amide]			1.1 nM	1380 nM
Cc1cc(N2C[C@H](S(=O)(=O)c3ccccc3Cl)C[C@H]2C(=O)NC2(C#N)CC2)n(-c2ccnc(Cl)c2)n1 [Example 254, (2S,4R)-4-(2-Chloro-benzenesulfonyl)-1-[2-(2-chloro-pyridin-4-yl)-5-methyl-2H-pyrazol-3-yl]-pyrrolidine-2-carboxylic acid (1-cyano-cyclopropyl)-amide]			0.83 nM	2260 nM
N#CC1(NC(=O)[C@@H]2C[C@@H](S(=O)(=O)c3ccc(C4CC4)cc3C(F)(F)F)CN2C(=O)C2(C(F)(F)F)CC2)CC1 [Example 256, (2S,4R)-4-(4-Cyclopropyl-2-trifluoromethyl-benzenesulfonyl)-1-(1-trifluoromethyl-cyclopropanecarbonyl)-pyrrolidine-2-carboxylic acid (1-cyano-cyclopropyl)-amide]			0.26 nM	45700 nM
Cc1cc(-c2ccc(S(=O)(=O)[C@@H]3C[C@@H](C(=O)NC4(C#N)CC4)N(C(=O)C4(C)CC4)C3)c(C(F)(F)F)c2)ccn1 [Example 257, (2S,4R)-1-(1-M ethyl-cyclopropanecarbonyl)-4-[4-(2-methyl-pyridin-4-yl)-2-trifluoromethyl-benzenesulfonyl]-pyrrolidine-2-carboxylic acid (1-cyano-cyclopropyl)-amide]			0.195 nM	48200 nM
CC1(C(=O)N2C[C@H](S(=O)(=O)c3ccc(-c4ccnc(Cl)c4)cc3C(F)(F)F)C[C@H]2C(=O)NC2(C#N)CC2)CC1 [Example 258, (2S,4R)-4-[4-(2-Chloro-pyridin-4-yl)-2-trifluoromethyl-benzenesulfonyl]-1-(1-methyl-cyclopropanecarbonyl)-pyrrolidine-2-carboxylic acid (1-cyano-cyclopropyl)-amide]			0.19 nM	58000 nM
CC1(C(=O)N2C[C@H](S(=O)(=O)c3ccc(-c4ccc(F)cc4F)cc3C(F)(F)F)C[C@H]2C(=O)NC2(C#N)CC2)CC1 [Example 259, (2S,4R)-4-(2′,4′-Difluoro-3-trifluoromethyl-biphenyl-4-sulfonyl)-1-(1-methyl-cyclopropanecarbonyl)-pyrrolidine-2-carboxylic acid (1-cyano-cyclopropyl)-amide]			0.19 nM	79500 nM
CN1CCN(c2ccc(S(=O)(=O)[C@@H]3C[C@@H](C(=O)NC4(C#N)CC4)N(C(=O)C4(C(F)(F)F)CC4)C3)c(C(F)(F)F)c2)CC1 [Example 260, (2S,4R)-4-[4-(4-Methyl-piperazin-1-yl)-2-trifluoromethyl-benzenesulfonyl]-1-(1-trifluoromethyl-cyclopropanecarbonyl)-pyrrolidine-2-carboxylic acid (1-cyano-cyclopropyl)-amide]			0.245 nM	16500 nM
Cc1cc(N2C[C@H](S(=O)(=O)c3ccccc3)C[C@H]2C(=O)NC2(C#N)CC2)n(-c2ccc(C(F)(F)F)cc2)n1 [Example 261, (2S,4R)-4-Benzenesulfonyl-1-[5-methyl-2-(4-trifluoromethyl-phenyl)-2H-pyrazol-3-yl]-pyrrolidine-2-carboxylic acid (1-cyano-cyclopropyl)-amide]			12 nM	27000 nM
Cc1cc(N2C[C@H](S(=O)(=O)c3ccccc3)C[C@H]2C(=O)NC2(C#N)CC2)n(-c2ccnc(Cl)c2)n1 [Example 262, (2S,4R)-4-Benzenesulfonyl-1-[2-(2-chloro-pyridin-4-yl)-5-methyl-2H-pyrazol-3-yl]-pyrrolidine-2-carboxylic acid (1-cyano-cyclopropyl)-amide]			4.4 nM	28700 nM
CC(C)(C)OC(=O)N[C@H]1CC[C@H](CC(=O)N2C[C@H](S(=O)(=O)c3ccc(OCC(F)(F)F)cc3Cl)C[C@H]2C(=O)NC2(C#N)CC2)CC1 [Example 264, (4-{2-[(2S,4R)-4-[2-Chloro-4-(2,2,2-trifluoro-ethoxy)-benzenesulfonyl]-2-(1-cyano-cyclopropylcarbamoyl)-pyrrolidin-1-yl]-2-oxo-ethyl}-cyclohexyl)-carbamic Acid Tert-butyl ester]			0.495 nM	8380 nM
N#CC1(NC(=O)[C@@H]2C[C@@H](S(=O)(=O)c3ccc(OCC(F)(F)F)cc3Cl)CN2C(=O)C[C@H]2CC[C@H](N)CC2)CC1 [Example 265, (2S,4R)-1-[2-(4-Amino-cyclohexyl)-acetyl]-4-[2-chloro-4-(2,2,2-trifluoro-ethoxy)-benzenesulfonyl]-pyrrolidine-2-carboxylic acid (1-cyano-cyclopropyl)-amide]			1.35 nM	2050 nM
Cc1cc(N2C[C@H](S(=O)(=O)c3ccc(F)cc3C(F)(F)F)C[C@H]2C(=O)NC2(C#N)CC2)n(-c2ccnc(Cl)c2)n1 [Example 266, (2S,4R)-1-[2-(2-Chloro-pyridin-4-yl)-5-methyl-2H-pyrazol-3-yl]-4-(4-fluoro-2-trifluoromethyl-benzenesulfonyl)-pyrrolidine-2-carboxylic acid (1-cyano-cyclopropyl)-amide]			1.3 nM	22100 nM
Cc1cc(N2C[C@H](S(=O)(=O)c3ccc(F)cc3C(F)(F)F)C[C@H]2C(=O)NC2(C#N)CC2)n(-c2ccc(C(F)(F)F)cc2)n1 [Example 267, (2S,4R)-4-(4-Fluoro-2-trifluoromethyl-benzenesulfonyl)-1-[5-methyl-2-(4-trifluoromethyl-phenyl)-2H-pyrazol-3-yl]-pyrrolidine-2-carboxylic acid (1-cyano-cyclopropyl)-amide]			2.3 nM	7810 nM
Cc1cc(N2C[C@H](S(=O)(=O)c3ccccc3C(F)(F)F)C[C@H]2C(=O)NC2(C#N)CC2)n(C(C)C)n1 [Example 268, (2S,4R)-1-(2-Isopropyl-5-methyl-2H-pyrazol-3-yl)-4-(2-trifluoromethyl-benzenesulfonyl)-pyrrolidine-2-carboxylic acid (1-cyano-cyclopropyl)-amide]			2.35 nM	47300 nM
Cc1cc(N2C[C@H](S(=O)(=O)c3ccccc3C(F)(F)F)C[C@H]2C(=O)NC2(C#N)CC2)n(CC(F)(F)F)n1 [Example 269, (2S,4R)-1-[5-Methyl-2-(2,2,2-trifluoro-ethyl)-2H-pyrazol-3-yl]-4-(2-trifluoromethyl-benzenesulfonyl)-pyrrolidine-2-carboxylic acid (1-cyano-cyclopropyl)-amide]			1.6 nM	75100 nM
CC1(C(=O)N2C[C@H](S(=O)(=O)c3ccc(Br)cc3C(F)(F)F)C[C@H]2C(=O)NC2(C#N)CC2)CC1 [Example 270, (2S,4R)-4-(4-Bromo-2-trifluoromethyl-benzenesulfonyl)-1-(1-methyl-cyclopropanecarbonyl)-pyrrolidine-2-carboxylic acid (1-cyano-cyclopropyl)-amide]			0.395 nM	≥ 25000 nM
CC1(C(=O)N2C[C@H](S(=O)(=O)c3ccc(C4CC4)cc3C(F)(F)F)C[C@H]2C(=O)NC2(C#N)CC2)CC1 [Example 271, (2S,4R)-4-(4-Cyclopropyl-2-trifluoromethyl-benzenesulfonyl)-1-(1-methyl-cyclopropanecarbonyl)-pyrrolidine-2-carboxylic acid (1-cyano-cyclopropyl)-amide]			1.75 nM	85600 nM
